Laboratory results published in the NIST ThermoML archive (doi:10.1021/je050074w).

Test: an = mass per volume of the nth substance listed, in kg/m3
Conditions: Wilhelmy plate method

CCCCCCCCCCCCOS(=O)(=O)[O-].[Na+] [sodium dodecyl sulfate] + O
surface tension liquid-gas [mN/m]
Conditions | a1 = 0.00627 | a1 = 0.0157 | a1 = 0.0273 | a1 = 0.0338
288.15 K | 71.99 | 65.28 | 64.13 | 69.24
289.15 K | 71.91 | 65.17 | 64.05 | 69.1
290.15 K | 71.74 | 65 | 63.88 | 68.89
291.15 K | 71.58 | 64.83 | 63.72 | 68.76
292.15 K | 71.41 | 64.67 | 63.56 | 68.59
293.15 K | 71.24 | 64.48 | 63.37 | 68.45
294.15 K | 71.07 | 64.32 | 63.19 | 68.28
295.15 K | 70.89 | 64.17 | 63.02 | 68.11
296.15 K | 70.76 | 64.03 | 62.88 | 67.97
297.15 K | 70.59 | 63.86 | 62.74 | 67.78
298.15 K | 70.43 | 63.71 | 62.6 | 67.63
299.15 K | 70.29 | 63.57 | 62.49 | 67.44
300.15 K | 70.16 | 63.41 | 62.36 | 67.29
301.15 K | 70.01 | 63.26 | 62.25 | 67.11
302.15 K | 69.84 | 63.08 | 62.11 | 66.95
303.15 K | 69.68 | 62.94 | 62.01 | 66.77
304.15 K | 69.53 | 62.76 | 61.9 | 66.61
305.15 K | 69.39 | 62.66 | 61.83 | 66.42
306.15 K | 69.23 | 62.52 | 61.72 | 66.25
307.15 K | 69.08 | 62.32 | 61.62 | 66.04
308.15 K | 68.94 | 62.16 | 61.54 | –
